Target: T1, recombinant human plasminogen activator inhibitor-1 (PAI-1) (Homo sapiens, UniProt P05121)
T1 construct: purchased Molecular Innovations, Royal Oak, Mich
Assay: Screening for PAI-1 inhibition (residual tPA activity, Spectrozyme-tPA chromogenic substrate)
Type: biochemical
Details: test compound at 100 Um; pH 6.6 buffer, 140 nM PAI-1, 70 nM tPA
In short: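 PAI-1 at 140 nM, pH 6.6 buffer, preincubated 1 h at room temperature with compound (1-100 μM final, ≤0.2% DMSO), then 70 nM tPA added for 30 min. Residual tPA activity read by Spectrozyme-tPA absorbance at 405 nm at 0 and 60 min. Inhibition taken as residual tPA activity.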

T1 sequence (P05121 24-402): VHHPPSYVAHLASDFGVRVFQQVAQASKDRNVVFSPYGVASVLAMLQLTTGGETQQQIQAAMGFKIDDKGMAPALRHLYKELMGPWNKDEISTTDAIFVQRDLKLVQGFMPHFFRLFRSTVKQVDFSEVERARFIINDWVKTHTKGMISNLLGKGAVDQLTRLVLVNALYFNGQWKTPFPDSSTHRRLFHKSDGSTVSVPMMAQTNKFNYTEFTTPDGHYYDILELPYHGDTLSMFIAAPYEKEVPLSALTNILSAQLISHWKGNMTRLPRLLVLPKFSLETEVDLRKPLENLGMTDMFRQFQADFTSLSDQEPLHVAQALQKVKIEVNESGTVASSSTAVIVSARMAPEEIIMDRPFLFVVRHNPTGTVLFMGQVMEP

Row | inhibition at 100 µM | Structure (SMILES)
1 | 58% | O=C(O)CO/N=C/c1ccc(-c2ccc(OCc3ccc(Cl)c(Cl)c3)cc2)cc1 [Compound 108, {[((1E)-{4′-[(3,4-dichlorobenzyl)oxy]-1,1′-biphenyl-4-yl}methylidene)amino]oxy}acetic acid]
2 | 7% | Cc1ccc(COc2ccc(-c3ccc(/C=N/OCC(=O)O)cc3)cc2)cc1 [Compound 109, {[((1E)-{4′-[(4-methylbenzyl)oxy]-1,1′-biphenyl-4-yl}methylidene)amino]oxy}acetic acid]
3 | 6% | Cc1cccc(COc2ccc(-c3ccc(/C=N/OCC(=O)O)cc3)cc2)c1 [Compound 110, {[((1E)-{4′-[(3-methylbenzyl)oxy]-1,1′-biphenyl-4-yl}methylidene)amino]oxy}acetic acid]
4 | 38% | O=C(O)CO/N=C/c1ccc(-c2ccc(OCc3c(Cl)cccc3Cl)cc2)cc1 [Compound 111, {[((1E)-{4′-[(2,6-dichlorobenzyl)oxy]-1,1′-biphenyl-4-yl}methylidene)amino]oxy}acetic acid]
5 | 65% | CC(C)(C)c1ccc(COc2ccc(/C=N/OCC(=O)O)cc2OCc2ccc(C(C)(C)C)cc2)cc1 [Compound 112, {[((1E)-{3,4-bis[(4-tert-butylbenzyl)oxy]phenyl}methylidene)amino]oxy}acetic acid]
6 | 91% | O=C(O)CO/N=C/c1ccc(OCc2ccc(F)cc2)c(OCc2ccc(F)cc2)c1 [Compound 113, {[((1E)-{3,4-bis[(4-fluorobenzyl)oxy]phenyl}methylidene)amino]oxy}acetic acid]
7 | 93% | O=C(O)CO/N=C/c1ccc(OCc2ccc(C(F)(F)F)cc2)c(OCc2ccc(C(F)(F)F)cc2)c1 [Compound 114, ({[(1E)-(3,4-bis{[4-(trifluoromethyl)benzyl]oxy}phenyl)methylidene]amino}oxy)acetic acid]
8 | 87% | O=C(O)CO/N=C/c1ccc(OCc2ccc(Br)cc2)c(OCc2ccc(Br)cc2)c1 [Compound 115, {[((1E)-{3,4-bis[(4-bromobenzyl)oxy]phenyl}methylidene)amino]oxy}acetic acid]
9 | 92% | O=C(O)CO/N=C/c1ccc(OCc2cccc(Cl)c2)c(OCc2cccc(Cl)c2)c1 [Compound 116, {[((1E)-{3,4-bis[(3-chlorobenzyl)oxy]phenyl}methylidene)amino]oxy}acetic acid]
10 | 88% | O=C(O)CO/N=C/c1ccc(OCc2cccc(Br)c2)c(OCc2cccc(Br)c2)c1 [Compound 117, {[((1E)-{3,4-bis[(3-bromobenzyl)oxy]phenyl}methylidene)amino]oxy}acetic acid]
11 | 92% | Cc1cccc(COc2ccc(/C=N/OCC(=O)O)cc2OCc2cccc(C)c2)c1 [Compound 118, {[((1E)-{3,4-bis[(3-methylbenzyl)oxy]phenyl}methylidene)amino]oxy}acetic acid]
12 | 93% | O=C(O)CO/N=C/c1ccc(OCc2cccc(C(F)(F)F)c2)c(OCc2cccc(C(F)(F)F)c2)c1 [Compound 119, ({[(1E)-(3,4-bis{[3-(trifluoromethyl)benzyl]oxy}phenyl)methylidene]amino}oxy)acetic acid]
13 | 78% | Cc1ccc(COc2ccc(/C=N/OCC(=O)O)cc2OCc2ccc(C)cc2)cc1 [Compound 120, {[((1E)-{3,4-bis[(4-methylbenzyl)oxy]phenyl}methylidene)amino]oxy}acetic acid]
14 | 72% | O=C(O)CO/N=C/c1ccc(OCc2ccc(F)c(F)c2)c(OCc2ccc(F)c(F)c2)c1 [Compound 121, {[((1E)-{3,4-bis[(3,4-difluorobenzyl)oxy]phenyl}methylidene)amino]oxy}acetic acid]
15 | 87% | Cc1ccc(COc2ccc(/C=N/OCC(=O)O)c(OCc3ccc(C)cc3)c2)cc1 [Compound 122, {[((1E)-{2,4-bis[(4-methylbenzyl)oxy]phenyl}methylidene)amino]oxy}acetic acid]

Source: US7411083B2, “Substituted acetic acid derivatives” (Wyeth, priority 2003, dated 2008)
